Data reported in US20210093531A1, “DERIVATIVES OF MENTHOL AND USES THEREOF” (Board of Trustees of Northern Illinois University, priority 2019, published 2021).
Marks after values point to notes of the source that are not given here.

Assays:
trained panelists = experiment: time-intensity analysis of cooling, lozenge application; format: in vivo; conditions: 4-minute window
Method: In order to evaluate the potential use of menthol glycinates as […] different food, beverage and oral hygiene products, select compounds were incorporated in different application systems. A beverage model system, a lozenge and a mouthwash application were created, and time-intensity analysis was performed using trained discrimination analysis panelists. Time-Intensity (TI) is a temporal sensory method. During TI evaluations, assessors are asked to score the intensity of perception of a single attribute over consumption of the product. Compared to single point measurements, TI analysis can characterize the onset, decline and rates thereof, of particular sensory characteristics. This analysis may reveal rich information regarding the intensity of an attribute over the time domain and identify temporal perceptual differences among samples that can greatly impact the overall profile of a product. For each sample evaluation, a temporal curve is generated, based on duplication. The temporal curves for each panelist are combined to generate a combined curve for each product that is evaluated. The following distinct parameters were calculated: Imax: peak intensity or maximum observed intensity on the whole curve; […]: time point where the reaction to the stimulus is first perceived on the curve; Tmax: time position of the peak intensity on the curve; Tplateau: protraction of maximum intensity or duration of maximum intensity; Text: time point of extinction of the perception of the stimulus, defined as the position in time after the peak intensity where the measured intensity disappears (or the end of evaluation window); Iext: intensity at time of extinction or end of evaluation; R increase: slope or rate of intensity increase between […] and Tmax; R decrease: slope or rate of intensity decrease between Tmax and Text; and Area: the total area under the time-intensity curve. The formula detailed in Table 4 was employed to create the lozenge application to evaluate menthol glycinates of interest using time-intensity analysis. [table] For time-intensity (T-I) evaluation of the cooling intensity of lozenges, 9 panelists were recruited (3 male, 6 female). Panelists were trained in basic taste descriptive analysis. A sweetness reference series (intensity range 2-12) was provided to be used as cross-modality reference to aid in scaling the intensity of the cool attribute present in the lozenge samples. Panelists evaluated samples in duplicates and all samples were presented blinded and in a randomized order using a 3-digit code. Panelists were instructed to provide cooling intensity at predetermined time points throughout an evaluation window of 4 minutes. […] Evaluations were performed with at least 4 hours between them to ensure no carry over. Data analysis for generation of T-I statistics and ANOVA analysis to determine significant difference among samples was performed using R STUDIO.

[1] = taste dilution tests; cited from earlier work

Molecule	Tmax (time of peak intensity) (trained panelists)	Tstart (time cooling first perceived) (trained panelists)	RInc (rate of intensity increase) (trained panelists)	cooling threshold [1] [ppm]	Imax (peak cooling intensity) (trained panelists; 0.05 g test compound per 100 g, 2 g sample, 9 panelists)	AUC (total area under time-intensity curve) (trained panelists)	RDec (rate of intensity decrease) (trained panelists)
CCCCN(CCCC)CC(=O)O[C@@H]1C[C@H](C)CC[C@H]1C(C)C [Product 10, (1R,2S,5R)-2-Isopropyl-5-methylcyclohexyl 2-(dibutylamino)acetate]	210.00^a	–	–	–	–	–	–
CC(C)[C@@H]1CC[C@@H](C)C[C@H]1OC(=O)CN(C)C(C)C [Product 16, (1R,2S,5R)-2-Isopropyl-5-methylcyclohexyl 2-(isopropyl(methyl)amino)acetate]	204.71^a	7.85^ac	–	–	–	–	–
(1R,2S,5R)-2-Isopropyl-5-methylcyclohexyl 2-(isopropylamino)acetate [Product 7]	210.00^a	–	0.041^ab	–	–	–	–
CC1CCC(C(C)C)C(O)C1 (stereo not drawn) [Menthol, menthol]	180.00^b	5.00^b	0.053^b	0.8	11.53^bc^	2064.83^b	0.056^b
